Among the data in US20250179047A1, “5-[7-(3,4-DIHYDRO-1H-ISOQUINOLINE-2-CARBONYL)-1,2,3,4 TETRAHYDROISOQUINOLIN-6-YL]-1H-PYRROLE-3-CARBOXAMIDE DERIVATIVES, PHARMACEUTICAL COMPOSITIONS CONTAINING THEM AND THEIR USES AS PRO-APOPTOTIC AGENTS” (LES LABORATOIRES SERVIER, priority 2022, published 2025) are IC50 values, retold here.

Holding throughout (format): cell-based
One experiment deals with KMS12PE Bcl2 D103E. Nature of the experiment: In vitro cytotoxicity CellTiterGlo 72 h, KMS12PE Bcl2 D103E. The following applies: Homo sapiens, KMS-12-PE, read-out: C50 nM, KMS12PE Bcl2 D103E. As for the experimental part: (§1) KMS-12-PE (ACC 606) were purchased from the Leibniz-Institute DSMZ (Braunschweig, Germany) and were grown at 37° C. in a humidified atmosphere with 5% CO2 in media recommended by the suppliers. Lentiviral particles containing Bcl-2 wild type (also named “Bcl2 WT”), Bcl-2 mutated on G101V (also named “Bcl2 G101V”), Bcl-2 mutated on D103Y (also named “Bcl2 D103Y”), Bcl-2 mutated on D103V (also named “Bcl2 D103V”), Bcl-2 mutated on D103E (also named “Bcl2 D103E”), Bcl-2 mutated on F104I (also named “Bcl2 F104I”), Bcl-2 mutated on F104L (also named “Bcl2 F104L”), Bcl-2 mutated on D111A (also named “Bcl2 D111A”), Bcl-2 mutated on A113G (also named “Bcl2 A113G”), Bcl-2 mutated on R129L (also named “Bcl2 R129L”), Bcl-2 mutated on V156D (also named “Bcl2 V156D”) were cloned into pcLV-CMV-DEST-IRES-TagRFP. Lentiviral particles (1×10^6) were mixed with Polybrene at 8 μg/ml and transduced by spinoculation for 1 h at 32° C. and incubated overnight. After 8 days, TagRFP positive-cells were sorted by FACS. BCL2 expression was monitored by immunoblotting using anti-Flag and anti-BCL2 antibodies. Cells were seeded into 96-wells plates and treated with 1:3.16 serial dilution of compounds (9 different concentrations). Cell viability was assessed using CellTiterGlo reagent following treatment for 72 h. Results were normalized to the viability of cells without compounds (control wells). The C50 values were calculated using nonlinear regression algorithms in XCell software.
(In ATP-based viability assays light output follows the ATP content of the culture.)

Another experiment deals with KMS12PE Bcl2 V156D. Nature of the experiment: In vitro cytotoxicity CellTiterGlo 72 h, KMS12PE Bcl2 V156D. To be noted: Homo sapiens, KMS-12-PE, read-out: C50 nM, KMS12PE Bcl2 V156D. The procedure:
as §1

In the next experiment the test system is KMS12PE Bcl2 F104L. Nature of the experiment: In vitro cytotoxicity CellTiterGlo 72 h, KMS12PE Bcl2 F104L. The following applies: Homo sapiens, KMS-12-PE, read-out: C50 nM, KMS12PE Bcl2 F104L. The procedure: as §1
Another experiment concerns KMS12PE Bcl2 WT. Nature of the experiment: In vitro cytotoxicity CellTiterGlo 72 h, KMS12PE Bcl2 WT. To be noted: Homo sapiens, KMS-12-PE, read-out: C50 nM, KMS12PE Bcl2 WT. The procedure:
as §1

A further experiment deals with KMS12PE Bcl2 D103Y. Description: In vitro cytotoxicity CellTiterGlo 72 h, KMS12PE Bcl2 D103Y. To be noted: Homo sapiens, KMS-12-PE, read-out: C50 nM, KMS12PE Bcl2 D103Y. The procedure: as §1
A further experiment concerns KMS-12-PE Bcl-2 WT. Description: In vitro cytotoxicity CellTiter-Glo 48 h, KMS-12-PE Bcl-2 WT. The following applies: Homo sapiens, KMS-12-PE, C50 = concentration needed to reach 50% of the cellular viability. The method in brief:
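Viability measured by CellTiter-Glo luminescence after 48 h compound exposure (11-point curve, 37 °C, 5% CO2). Cells: KMS-12-PE transduced with wild-type or G101V-mutant Bcl-2, FACS-sorted for TagRFP. Reported C50 = concentration reaching 50% cellular viability.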

In a further experiment the test system is KMS12PE Bcl2 D103V. Description: In vitro cytotoxicity CellTiterGlo 72 h, KMS12PE Bcl2 D103V. To be noted: Homo sapiens, KMS-12-PE, read-out: C50 nM, KMS12PE Bcl2 D103V. The procedure:
as §1

Another experiment has as its system KMS12PE. Description: In vitro cytotoxicity CellTiterGlo 72 h, KMS12PE. To be noted: Homo sapiens, KMS-12-PE, read-out: C50 nM, KMS12PE. The procedure: as §1

Molecules are shown by their SMILES.

For `Cc1c(N(C(=O)c2cc(-c3cc4c(cc3C(=O)N3Cc5ccccc5C[C@H]3C)CN(C(=O)Cc3ccc(CCN5CCC(F)(F)CC5)cc3)CC4)n(C)c2C)c2ccc(O)cc2)cc(C#N)n1C` [Example 51, N-(5-cyano-1,2-dimethylpyrrol-3-yl)-5-[2-(2-{4-[2-(4,4-difluoropiperidin-1-yl)ethyl]phenyl}acetyl)-7-{[(3R)-3-methyl-3,4-dihydro-1H-isoquinolin-2-yl]carbonyl}-3,4-dihydro-1H-isoquinolin-6-yl]-N-(4-hydroxyphenyl)-1,2-dimethylpyrrole-3-carboxamide], the IC50 was found to be 2.81 nM in the experiment with KMS12PE Bcl2 D103E; 31.9 nM in the experiment on KMS12PE Bcl2 V156D; 58.9 nM with KMS12PE Bcl2 F104L; 2.82 nM in the experiment on KMS12PE Bcl2 WT; 2.79 nM in the experiment on KMS12PE Bcl2 D103Y; 0.0068 µM in the experiment on KMS-12-PE Bcl-2 WT. For the same molecule, the IC50 with KMS12PE Bcl2 D103V came out at 4.63 nM; in the experiment with KMS12PE it was 0.34 nM.

Turning to `COC[C@@H]1Cc2ccccc2CN1C(=O)c1cc2c(cc1-c1cc(C(=O)N(c3ccc(O)cc3)c3cc(C#N)n(C)c3C)c(C)n1C)CCN(C(=O)Cc1ccc(OCCC3CCOCC3)cc1F)C2` [Example 52, N-(5-cyano-1,2-dimethylpyrrol-3-yl)-5-[2-(2-{2-fluoro-4-[2-(oxan-4-yl)ethoxy]phenyl}acetyl)-7-{[(3S)-3-(methoxymethyl)-3,4-dihydro-1H-isoquinolin-2-yl]carbonyl}-3,4-dihydro-1H-isoquinolin-6-yl]-N-(4-hydroxyphenyl)-1,2-dimethylpyrrole-3-carboxamide], the IC50 came to 1.86 nM in the experiment on KMS12PE Bcl2 D103E; 10.6 nM with KMS12PE Bcl2 V156D; 11.1 nM in the experiment with KMS12PE Bcl2 F104L; 2.07 nM in the experiment with KMS12PE Bcl2 WT; 1.8 nM in the experiment on KMS12PE Bcl2 D103Y; 0.0034 µM in the experiment on KMS-12-PE Bcl-2 WT. Further, the IC50 came out at 2.78 nM in the experiment on KMS12PE Bcl2 D103V and 0.21 nM in the experiment with KMS12PE.

In the case of `Cc1c(N(C(=O)c2cc(-c3cc4c(cc3C(=O)N3Cc5ccccc5C[C@H]3C)CN(C(=O)Cc3ccc(OCCN5CCC(F)CC5)cc3)CC4)n(C)c2C)c2ccc(O)cc2)cc(C#N)n1C` [Example 53, N-(5-cyano-1,2-dimethyl-1H-pyrrol-3-yl)-5-[2-(2-{4-[2-(4-fluoropiperidin-1-yl)ethoxy]phenyl}acetyl)-7-[(3R)-3-methyl-1,2,3,4-tetrahydroisoquinoline-2-carbonyl]-1,2,3,4-tetrahydroisoquinolin-6-yl]-N-(4-hydroxyphenyl)-1,2-dimethyl-1H-pyrrole-3-carboxamide], the IC50 in the experiment with KMS12PE Bcl2 D103E amounted to 2.76 nM; in the experiment with KMS12PE Bcl2 V156D, 21.4 nM; in the experiment on KMS12PE Bcl2 F104L it was 25.5 nM; in the experiment on KMS12PE Bcl2 WT, 2.88 nM; with KMS12PE Bcl2 D103Y it was 2.61 nM; in the experiment with KMS-12-PE Bcl-2 WT, 0.0072 µM. Further, the IC50 with KMS12PE Bcl2 D103V came out at 5.38 nM; in the experiment on KMS12PE it was 0.35 nM.

With `Cc1c(N(C(=O)c2cc(-c3cc4c(cc3C(=O)N3Cc5ccccc5C[C@H]3C)CN(C(=O)Cc3ccc(OCCN5CCSCC5)cc3)CC4)n(C)c2C)c2ccc(O)cc2)cc(C#N)n1C` [Example 55, N-(5-cyano-1,2-dimethyl-1H-pyrrol-3-yl)-N-(4-hydroxyphenyl)-1,2-dimethyl-5-{7-[(3R)-3-methyl-1,2,3,4-tetrahydroisoquinoline-2-carbonyl]-2-(2-{4-[2-(thiomorpholin-4-yl)ethoxy]phenyl}acetyl)-1,2,3,4-tetrahydroisoquinolin-6-yl}-1H-pyrrole-3-carboxamide], the IC50 worked out at 2.91 nM with KMS12PE Bcl2 D103E; 14.9 nM in the experiment on KMS12PE Bcl2 V156D; 19.7 nM in the experiment with KMS12PE Bcl2 F104L; 2.61 nM with KMS12PE Bcl2 WT; 2.5 nM in the experiment on KMS12PE Bcl2 D103Y; 0.0062 µM with KMS-12-PE Bcl-2 WT. For the same molecule, the results for the IC50 with KMS12PE Bcl2 D103V and with KMS12PE were 4.48 nM and 0.33 nM, respectively.

In the case of `Cc1c(N(C(=O)c2cc(-c3cc4c(cc3C(=O)N3Cc5ccccc5C[C@H]3CN3CCCCC3)CN(C(=O)Cc3ccc(OCCC5CCOCC5)cc3)CC4)n(C)c2C)c2ccc(O)cc2)cc(C#N)n1C` [Example 66, N-(5-cyano-1,2-dimethylpyrrol-3-yl)-N-(4-hydroxyphenyl)-1,2-dimethyl-5-[2-(2-{4-[2-(oxan-4-yl)ethoxy]phenyl}acetyl)-7-{[(3S)-3-(piperidin-1-ylmethyl)-3,4-dihydro-1H-isoquinolin-2-yl]carbonyl}-3,4-dihydro-1H-isoquinolin-6-yl]pyrrole-3-carboxamide], the IC50 is 1.89 nM in the experiment on KMS12PE Bcl2 D103E; 7.65 nM in the experiment with KMS12PE Bcl2 V156D; 24.1 nM in the experiment on KMS12PE Bcl2 F104L; 1.74 nM with KMS12PE Bcl2 WT; 1.3 nM in the experiment with KMS12PE Bcl2 D103Y; 0.006 µM in the experiment on KMS-12-PE Bcl-2 WT. Moreover, the IC50 in the experiment on KMS12PE Bcl2 D103V worked out at 2.22 nM; with KMS12PE, 0.2 nM.

Consider `Cc1c(C(=O)N(c2ccc(O)cc2)c2cc(C#N)n(C(F)F)c2C)cc(-c2cc3c(cc2C(=O)N2Cc4ccccc4C[C@H]2CN2CCCCC2)CN(C(=O)Cc2ccc(OCCN4CCOCC4)cc2)CC3)n1C` [Example 77], for which the IC50 in the experiment with KMS12PE Bcl2 D103E was 4.69 nM; with KMS12PE Bcl2 V156D, 19.1 nM; in the experiment with KMS12PE Bcl2 F104L, 31.9 nM; in the experiment with KMS12PE Bcl2 WT, 4.75 nM; in the experiment on KMS12PE Bcl2 D103Y it was 3.31 nM; in the experiment with KMS-12-PE Bcl-2 WT, 0.0084 µM. Moreover, the values for the IC50 with KMS12PE Bcl2 D103V and in the experiment with KMS12PE were 6.28 nM and 0.42 nM, respectively.

As to `Cc1c(C(=O)N(c2ccc(O)cc2)c2cc(C#N)n(C(F)F)c2C)cc(-c2cc3c(cc2C(=O)N2Cc4ccccc4C[C@H]2CN2CCCCC2)CN(C(=O)Cc2ccc(OCCN4CCOCC4)cc2F)CC3)n1C` [Example 78, N-[5-cyano-1-(difluoromethyl)-2-methylpyrrol-3-yl]-5-[2-(2-{2-fluoro-4-[2-(morpholin-4-yl)ethoxy]phenyl}acetyl)-7-{[(3S)-3-(piperidin-1-ylmethyl)-3,4-dihydro-1H-isoquinolin-2-yl]carbonyl}-3,4-dihydro-1H-isoquinolin-6-yl]-N-(4-hydroxyphenyl)-1,2-dimethylpyrrole-3-carboxamide], the IC50 in the experiment on KMS12PE Bcl2 D103E was determined as 1.18 nM; with KMS12PE Bcl2 V156D, 5.88 nM; in the experiment with KMS12PE Bcl2 F104L it was 8.71 nM; with KMS12PE Bcl2 WT, 1.41 nM; in the experiment on KMS12PE Bcl2 D103Y, 1 nM; in the experiment on KMS-12-PE Bcl-2 WT, 0.005 µM. The figures for the IC50 in the experiment on KMS12PE Bcl2 D103V and with KMS12PE were 1.59 nM and 0.12 nM, respectively.

For `Cc1c(N(C(=O)c2cc(-c3cc4c(cc3C(=O)N3Cc5ccccc5C[C@H]3CN3CCC[C@H](C)C3)CN(C(=O)Cc3ccc(OCCN5CCOCC5)cc3F)CC4)n(C)c2C)c2ccc(O)cc2)cc(C#N)n1C` [Example 107], the IC50 in the experiment on KMS12PE Bcl2 D103E is 1.22 nM; in the experiment on KMS12PE Bcl2 V156D, 5.93 nM; with KMS12PE Bcl2 F104L, 7.04 nM; in the experiment on KMS12PE Bcl2 WT, 1.59 nM; in the experiment with KMS12PE Bcl2 D103Y it was 0.97 nM; in the experiment on KMS-12-PE Bcl-2 WT, 0.0034 µM. The figures for the IC50 in the experiment with KMS12PE Bcl2 D103V and in the experiment with KMS12PE were 1.94 nM and 0.15 nM, respectively.
